These results are taken from paper PMC6010099, “Synthesis and antitumor activity of novel 2, 3-didithiocarbamate substituted naphthoquinones as inhibitors of pyruvate kinase M2 isoform” (Journal of Enzyme Inhibition and Medicinal Chemistry, 2017).

Like-named read-outs stand apart in the source and are kept apart here.

One data set concerns MCF7. The data set is described as follows: MTS cell proliferation assay, MCF7. As to conditions: MCF7 breast cancer, 48 h, read-out: IC50 ± SD, in vitro cytotoxicity MCF7. The data set is classed as cell-based, human. The method, then:
(§1) Cell lines were grown with routine culture techniques in RPMI 1640 supplemented with 9% foetal bovine serum at 37 °C in 5% CO2.
(§2) Cells were plated in 96-well plates at a density of 5000 cells per well. Twelve hours after seeding, cells were treated with various concentrations of test compounds for 48 h. Cell viability was assessed with the MTS assay (Promega) according to the manufacturer's instruction.
(§3) To determine the efficiency of 3a-3h as antitumour agents, we assessed the in vitro cytotoxicity of 3a-3h using several different tumour cell lines derived from human colon cancer (HCT116), breast cancer (MCF7), cervical cancer (Hela) and lung cancer (H1299) and mouse melanoma (B16). […] This discrepancy may be due to the different properties of these compounds such as cell penetration that is important in the cellular assay.

The next data set concerns B16. The data set is described as follows: MTS cell proliferation assay, B16. Type of data set: cell-based. The note with it: B16 mouse melanoma, 48 h, read-out: IC50 ± SD, in vitro cytotoxicity B16. The method, then: as §1, §2, §3
(Tetrazolium dyes change colour on reduction, which living cells bring about.)

Another data set deals with T1, PKM2 (Homo sapiens, UniProt P14618).
T1 construct: His tag (N); made in house; host or cells: Escherichia coli BL21
The data set is described as follows: PKM2 activity assay (fluorescent pyruvate kinase-lactate dehydrogenase coupled assay). The note with it: recombinant human PKM2, fluorescent PK-LDH coupled assay; read-out: IC50 ± SD, PKM2 inhibitory activity. Type of data set: biochemical. The method, then: Human cDNA for PKM2 was cloned into pET28a^+ with a N-terminal His tag and purified from Escherichia coli strain BL21 (Invitrogen) using Ni-Agarose beads (Qiagen) as described previously.
Pyruvate kinase activity was measured with a fluorescent pyruvate kinase-lactate dehydrogenase coupled assay as previously described.
We first tested the effect of compound 3a-3h on PKM2 activity using a fluorescent PK-LDH coupled assay according to a previously reported method. Shikonin, which is a known inhibitor of PKM2, was used as the positive control. […] The preliminary SAR can be summarised as follows. The amine moiety of target compounds greatly influenced PKM2 inhibitory activity. Introduction of a short chain N, N-dimethylamine reduced the inhibitory activity (3b vs. 3c and 3d). When the n-propyl amine in 3d was replaced by allyl amine (3e), the inhibitory activity was lowered. […] Introduction of a sulphur atom therefore contributed to improvement of PKM2 inhibitory activity.

The next data set relates to Hela. The data set is described as follows: MTS cell proliferation assay, Hela. The data set is classed as cell-based, human. The note with it: Hela cervical cancer, 48 h, read-out: IC50 ± SD, in vitro cytotoxicity Hela. The method, then:
as §1, §2, §3

The test system of data set [1] is HCT116, MCF7, Hela, H1299 and B16 cells. The data set is described as follows: MTS cell proliferation assay, range over the tumour cell panel. Type of data set: cell-based. The note with it: range over the five cell lines, read-out: IC50 values against HCT116, MCF7, Hela, H1299 and B16 cells (range over cell lines). The method, then: as §1, §2, §3
A further data set concerns H1299. The data set is described as follows: MTS cell proliferation assay, H1299. Type of data set: cell-based, human. As to conditions: 48 h, read-out: IC50 ± SD, in vitro cytotoxicity H1299. The method, then: as §1, §2, §3
The next data set deals with HCT116. The data set is described as follows: MTS cell proliferation assay, HCT116. Type of data set: cell-based, human. As to conditions: 48 h, read-out: IC50 ± SD, in vitro cytotoxicity HCT116. The method, then:
as §1, §2, §3

The subject of a further data set is BEAS-2B cells. The data set is described as follows: Cytotoxicity in normal BEAS-2B cells. Type of data set: cell-based. As to conditions: normal human bronchial epithelial cells. The method, then:
as §1, §2
To further explore the selectivity of target compounds against cancer cells, we tested the cytotoxicity of representative compound 3f in BEAS-2B cells derived from normal human bronchial epithelial cells.

Setting [2] is: Homo sapiens, NCI-H1299, H1299 lung cancer.
[3] abbreviates: Homo sapiens, HCT-116, HCT116 colon cancer.

T1 sequence (P14618 whole entry): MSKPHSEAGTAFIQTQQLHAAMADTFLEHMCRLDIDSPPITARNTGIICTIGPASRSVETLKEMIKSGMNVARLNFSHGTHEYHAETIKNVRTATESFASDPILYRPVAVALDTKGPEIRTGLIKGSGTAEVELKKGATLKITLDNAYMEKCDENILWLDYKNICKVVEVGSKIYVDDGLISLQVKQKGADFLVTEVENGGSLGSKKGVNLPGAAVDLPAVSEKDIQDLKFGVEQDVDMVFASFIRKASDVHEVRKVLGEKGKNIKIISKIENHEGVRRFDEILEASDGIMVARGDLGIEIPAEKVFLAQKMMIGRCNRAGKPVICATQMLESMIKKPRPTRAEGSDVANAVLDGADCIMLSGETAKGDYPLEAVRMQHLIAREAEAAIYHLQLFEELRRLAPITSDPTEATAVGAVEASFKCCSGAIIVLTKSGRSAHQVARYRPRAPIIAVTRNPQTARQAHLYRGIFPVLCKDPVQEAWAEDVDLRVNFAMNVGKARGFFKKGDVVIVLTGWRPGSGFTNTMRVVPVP

For the molecule `CCN(CC)C(=S)SCC1=C(CSC(=S)N(CC)CC)C(=O)c2ccccc2C1=O` [3c, diethyl-dithiocarbamic acid 3-diethylthiocarbamoylsulphanylmethyl-1,4-dioxo-1,4-dihydro-naphthalen-2-ylmethyl ester], the melting point was 130 to 131 °C. Also, the IC50 in the data set on MCF7 (Homo sapiens) turned out to be 84 ± 3 nM. Also, the IC50 in the data set with B16 is 108 ± 10 nM. Besides, the IC50 at PKM2 amounted to 2780 ± 970 nM. For the same molecule, the IC50 in the data set on Hela (Homo sapiens) was 251 ± 59 nM. In addition, in data set [1], the IC50 fell in the range of 84 to 251 nM. In addition, the IC50 in the data set on H1299 (setting [2]) amounted to 144 ± 13 nM. Besides, the IC50 with HCT116 (setting [3]) amounted to 93 ± 2 nM.
Take `CC(C)=CC[C@@H](O)C1=CC(=O)c2c(O)ccc(O)c2C1=O` [Shikonin, reference compound]: the IC50 amounted to 2400 ± 346 nM with MCF7 (Homo sapiens); 1220 ± 155 nM in the data set with B16; 8820 ± 2620 nM at PKM2; 813 ± 81 nM in the data set on Hela (Homo sapiens); 954 ± 186 nM with H1299 (setting [2]); 1060 ± 182 nM in the data set on HCT116 (setting [3]).
With `O=C1C(CSC(=S)N2CCOCC2)=C(CSC(=S)N2CCOCC2)C(=O)c2ccccc21` [3a, dimorpholine-dithiocarbamic acid 3-dimorpholinethiocarbamoylsulphanylmethyl-1,4-dioxo-1,4-dihydro-naphthalen-2-ylmethyl ester], the IC50 in the data set on MCF7 was 340 ± 3 nM; in the data set with B16, 272 ± 10 nM; at PKM2, 2640 ± 980 nM; in the data set on Hela it was 337 ± 54 nM; in the data set with H1299 (H1299 lung cancer), 331 ± 91 nM; in the data set with HCT116 (HCT116 colon cancer) it was 214 ± 3 nM.
As to `CC1=C(CSC(=S)N2CCCCC2)C(=O)c2ccccc2C1=O` [3k, reference compound], the half-maximal inhibitory concentration (IC50) at PKM2 is 2950 ± 530 nM.
Take `O=C1C(CSC(=S)N2CCCC2)=C(CSC(=S)N2CCCC2)C(=O)c2ccccc21` [3g, dipyrrolidine-dithiocarbamic acid 3-dipyrrolidinethiocarbamoylsulphanylmethyl-1,4-dioxo-1,4-dihydro-naphthalen-2-ylmethyl ester]: the 50% inhibitory concentration (IC50) with MCF7 amounted to 638 ± 20 nM; with B16, 159 ± 2 nM; at PKM2 it was 2330 ± 520 nM; with Hela, 298 ± 53 nM; with H1299 (H1299 lung cancer), 247 ± 15 nM; in the data set on HCT116 (HCT116 colon cancer), 164 ± 3 nM.
Consider `O=C1C(CSC(=S)N2CCSC2)=C(CSC(=S)N2CCSC2)C(=O)c2ccccc21` [3h, dithiazolidine-dithiocarbamic acid 3-dithiazolidinethiocarbamoylsulphanylmethyl-1,4-dioxo-1,4-dihydro-naphthalen-2-ylme-thyl ester], for which the IC50 in the data set on MCF7 was found to be 234 ± 45 nM; in the data set with B16, 317 ± 22 nM; on PKM2 it was 960 ± 180 nM; in the data set with Hela, 1130 ± 80 nM; with H1299 (H1299 lung cancer) it was 306 ± 8 nM; with HCT116 (HCT116 colon cancer), 374 ± 15 nM.
As to `CN(C)C(=S)SCC1=C(CSC(=S)N(C)C)C(=O)c2ccccc2C1=O` [3b, dimethyl-dithiocarbamic acid 3-dimethylthiocarbamoylsulphanylmethyl-1,4-dioxo-1,4-dihydro-naphthalen-2-ylmethyl ester], the IC50 is 69 ± 9 nM with MCF7 (Homo sapiens); 104 ± 11 nM in the data set on B16; more than 10000 nM on PKM2; 122 ± 17 nM with Hela (Homo sapiens); 69 to 122 nM in data set [1]; 109 ± 2 nM in the data set on H1299 (setting [2]). For the same molecule, the IC50 with HCT116 (setting [3]) is 88 ± 4 nM.
In turn, `CCCN(CCC)C(=S)SCC1=C(CSC(=S)N(CCC)CCC)C(=O)c2ccccc2C1=O` [3d, dipropyl-dithiocarbamic acid 3-dipropylthiocarbamoylsulphanylmethyl-1,4-dioxo-1,4-dihydro-naphthalen-2-ylmethyl ester] returned a melting point of 111 to 112 °C. In the data set on MCF7 (Homo sapiens), the IC50 is more than 10000 nM. In addition, the IC50 with B16 was 787 ± 203 nM. Besides, the IC50 at PKM2 worked out at 3080 ± 1230 nM. For the same molecule, the IC50 with Hela (Homo sapiens) is more than 10000 nM. Besides, the IC50 in the data set with H1299 (setting [2]) came to 830 ± 162 nM. In addition, in the data set on HCT116 (setting [3]), the IC50 is 597 ± 14 nM.
As to `C=CCN(CC=C)C(=S)SCC1=C(CSC(=S)N(CC=C)CC=C)C(=O)c2ccccc2C1=O` [3e, diallyl-dithiocarbamic acid 3-diallylthiocarbamoylsulphanylmethyl-1,4-dioxo-1,4-dihydro-naphthalen-2-ylmethyl ester], the 50% inhibitory concentration (IC50) is 1090 ± 421 nM in the data set with MCF7 (Homo sapiens); 709 ± 27 nM in the data set with B16; more than 10000 nM on PKM2; 3460 ± 3190 nM in the data set on Hela (Homo sapiens); 1020 ± 111 nM with H1299 (setting [2]); 742 ± 45 nM in the data set with HCT116 (setting [3]).
In the case of `O=C1C(CSC(=S)N2CCSCC2)=C(CSC(=S)N2CCSCC2)C(=O)c2ccccc21` [3f, dithiamorpholine-dithiocarbamic acid 3-dithiamorpholinethiocarbamoylsulphanylmethyl-1,4-dioxo-1,4-dihydro-naphthalen-2-ylmethyl ester], the IC50 was 194 ± 55 nM in the data set with MCF7; 189 ± 6 nM in the data set with B16; 1050 ± 170 nM on PKM2; 412 ± 18 nM in the data set on Hela; 206 ± 18 nM in the data set with H1299 (H1299 lung cancer); 11500 ± 620 nM in the data set on BEAS-2B cells. The IC50 in the data set with HCT116 (HCT116 colon cancer) came to 189 ± 35 nM.

The term IC50 denotes the concentration that gives 50% inhibition. By melting point is commonly meant the temperature of the solid-liquid transition.
